Results: ChEMBL document CHEMBL3868595, “Plazomicin is effective in a non-human primate pneumonic plague model” (Bioorg Med Chem, 2016)

Columns and labels:
[1] = Elimination half life in African green monkey blood at 25 mg/kg administered as iv infusion twice daily for 7 consecutive days measured on day 7 by LC-MS/MS analysis; format: ADME, organism-based; conditions: chlorocebus aethiops, read-out: beta t1/2 (converted)
[2] = Volume of distribution at steady state in African green monkey blood at 25 mg/kg administered as iv infusion twice daily for 7 consecutive days measured on day 7 by LC-MS/MS analysis; format: ADME, organism-based; conditions: chlorocebus aethiops, read-out: Vdss
[3] = Volume of distribution at steady state in African green monkey blood at 35 mg/kg administered as iv infusion twice daily for 7 consecutive days measured on day 1 by LC-MS/MS analysis; format: ADME, organism-based; conditions: chlorocebus aethiops, read-out: Vdss
Yersinia pestis [4] = assay: Antibacterial activity against Yersinia pestis Colorado 92 infected in African green monkey assessed as survival of monkey at 6.25 mg/kg, iv administered within 6 hrs post onset of sustained fever as 30 mins infusion for 5 days; format: functional; conditions: CO92, iv
Yersinia pestis [5] = assay: Antibacterial activity against Yersinia pestis Colorado 92 infected in African green monkey B6106 model assessed as bacterial burden in lung at 25 mg/kg, iv administered within 6 hrs post onset of sustained fever as 30 mins infusion for 5 days (reference value: 7.7 10^8CFU/g); format: functional, CO92
Yersinia pestis [6] = assay: (§1) Antibacterial activity against Yersinia pestis Colorado 92 infected in African green monkey B6960 model assessed as bacterial burden in spleen at 6.25 mg/kg, iv administered within 6 hrs post onset of sustained fever as 30 mins infusion for 5 days (reference value: 1.6 10^9CFU/g); format: functional, CO92
Yersinia pestis [7] = assay: Antibacterial activity against Yersinia pestis Colorado 92 infected in African green monkey B6889 model assessed as bacterial burden in liver at 6.25 mg/kg, iv administered within 6 hrs post onset of sustained fever as 30 mins infusion for 5 days (reference value: 5.2 10^8CFU/g); format: functional, CO92
Yersinia pestis [8] = assay: Antibacterial activity against Yersinia pestis Colorado 92 infected in African green monkey B6783 model assessed as bacterial burden in kidney at 12.5 mg/kg, iv administered within 6 hrs post onset of sustained fever as 30 mins infusion for 5 days (reference value: 7.1 10^7CFU/g); format: functional, CO92
Yersinia pestis [9] = assay: as §1, with “B6861” for “B6960”, “tracheobronchial lymph nodes” for “spleen”, “7.7” for “1.6”; format: functional, CO92, Lymph node
Yersinia pestis [10] = assay: as §1, with “C2149” for “B6960”, “tracheobronchial lymph nodes” for “spleen”, “7.7” for “1.6”; format: functional, CO92, Lymph node
Yersinia pestis [11] = assay: Antibacterial activity against Yersinia pestis Colorado 92 infected in African green monkey B6889 model assessed as bacterial burden in heart at 6.25 mg/kg, iv administered within 6 hrs post onset of sustained fever as 30 mins infusion for 5 days (reference value: 2.6 10^7CFU/g); format: functional, CO92
Yersinia pestis [12] = assay: Antibacterial activity against Yersinia pestis Colorado 92 infected in African green monkey B6415 model assessed as bacterial burden in brain at 25 mg/kg, iv administered within 6 hrs post onset of sustained fever as 30 mins infusion for 5 days (reference value: 1.9 10^6CFU/g); format: functional, CO92
Yersinia pestis [13] = assay: Antibacterial activity against Yersinia pestis Colorado 92 infected in African green monkey B6783 model assessed as bacterial burden in brain at 12.5 mg/kg, iv administered within 6 hrs post onset of sustained fever as 30 mins infusion for 5 days (reference value: 1.9 10^6CFU/g); format: functional, CO92
Yersinia pestis [14] = assay: Antibacterial activity against Yersinia pestis Colorado 92 infected in African green monkey B6889 model assessed as bacterial burden in brain at 6.25 mg/kg, iv administered within 6 hrs post onset of sustained fever as 30 mins infusion for 5 days (reference value: 1.9 10^6CFU/g); format: functional, CO92
Yersinia pestis [15] = assay: Antibacterial activity against Yersinia pestis Colorado 92 infected in African green monkey B6988 model assessed as bacterial burden in brain at 6.25 mg/kg, iv administered within 6 hrs post onset of sustained fever as 30 mins infusion for 5 days (reference value: 1.9 10^6CFU/g); format: functional, CO92
Yersinia pestis [16] = assay: Antibacterial activity against Yersinia pestis Colorado 92 infected in African green monkey 8047 model assessed as bacterial burden in brain at 6.25 mg/kg, iv administered within 6 hrs post onset of sustained fever as 30 mins infusion for 10 days (reference value: 1.9 10^6CFU/g); format: functional, CO92
Yersinia pestis [17] = assay: Antibacterial activity against Yersinia pestis Colorado 92 infected in African green monkey B6436 model assessed as bacterial burden in blood at 25 mg/kg, iv administered within 6 hrs post onset of sustained fever as 30 mins infusion for 5 days (reference value: 1.2 10^7CFU/ml); format: functional, organism-based; conditions: CO92
African green monkey [18] = assay: Toxicity in African green monkey B6127 model infected with Yersinia pestis Colorado 92 assessed as stomach ulcer at 25 mg/kg, iv administered within 6 hrs post onset of sustained fever as 30 mins infusion for 10 days measured by hematoxylin staining based assay; format: organism-based; conditions: chlorocebus sabaeus, in vivo
African green monkey [19] = assay: Toxicity in African green monkey 7643 model infected with Yersinia pestis Colorado 92 assessed as serum creatinine level at 25 mg/kg, iv administered within 6 hrs post onset of sustained fever as 30 mins infusion for 10 days (reference value: 0.5 mg/dl); format: organism-based; conditions: chlorocebus sabaeus, in vivo
African green monkey [20] = assay: Toxicity in African green monkey 7337 model infected with Yersinia pestis Colorado 92 assessed as serum creatinine level at 25 mg/kg, iv administered within 6 hrs post onset of sustained fever as 30 mins infusion for 10 days (reference value: 0.7 mg/dl); format: organism-based; conditions: chlorocebus sabaeus, in vivo
African green monkey [21] = assay: Toxicity in African green monkey B6291 model infected with Yersinia pestis Colorado 92 assessed as serum gamma glutamyl-transferase level at 25 mg/kg, iv administered within 6 hrs post onset of sustained fever as 30 mins infusion for 10 days (reference value: 77 IU/L); format: organism-based; conditions: chlorocebus sabaeus, in vivo
African green monkey [22] = assay: Toxicity in African green monkey 7972 model infected with Yersinia pestis Colorado 92 assessed as serum gamma glutamyl-transferase level at 25 mg/kg, iv administered within 6 hrs post onset of sustained fever as 30 mins infusion for 10 days (reference value: 46 IU/L); format: organism-based; conditions: chlorocebus sabaeus, in vivo
African green monkey [23] = assay: Toxicity in African green monkey B6140 model infected with Yersinia pestis Colorado 92 assessed as serum lactate dehydrogenase level at 25 mg/kg, iv administered within 6 hrs post onset of sustained fever as 30 mins infusion for 10 days (reference value: 290 IU/L); format: organism-based; conditions: chlorocebus sabaeus, in vivo
African green monkey [24] = assay: Toxicity in African green monkey B6428 model infected with Yersinia pestis Colorado 92 assessed as serum lactate dehydrogenase level at 25 mg/kg, iv administered within 6 hrs post onset of sustained fever as 30 mins infusion for 10 days (reference value: 238 IU/L); format: organism-based; conditions: chlorocebus sabaeus, in vivo
[25] = Toxicity in African green monkey B6140 model infected with Yersinia pestis Colorado 92 assessed as total white blood cell count at 25 mg/kg, iv administered within 6 hrs post onset of sustained fever as 30 mins infusion for 10 days (reference value: 6.8 10^3/microL); format: organism-based; conditions: chlorocebus aethiops, in vivo
[26] = Toxicity in African green monkey 7929 model infected with Yersinia pestis Colorado 92 assessed as total white blood cell count at 25 mg/kg, iv administered within 6 hrs post onset of sustained fever as 30 mins infusion for 10 days (reference value: 10.9 10^3/microL); format: organism-based; conditions: chlorocebus aethiops, in vivo

Work on `CN[C@@H]1[C@@H](O)[C@@H](O[C@@H]2[C@@H](O)[C@H](O[C@H]3OC(CNCCO)=CC[C@H]3N)[C@@H](N)C[C@H]2NC(=O)[C@@H](O)CCN)OC[C@]1(C)O` [PLAZOMICIN] yielded a half-life [1] of 1.8 h, a Vd [2] of 0.36 L/kg and a Vd [3] of 0.26 L/kg. The survival at 6.25 mg/kg (Yersinia pestis [4]) was 17%, the Activity (Yersinia pestis [5]) was 19 CFU/g and the Activity (Yersinia pestis [6]) was 23 CFU/g. For the same compound, the Activity (Yersinia pestis [7]) was 2.2 ×10⁷ CFU/g, the Activity (Yersinia pestis [8]) was 76 CFU/g and the Activity (Yersinia pestis [9]) was 1.2 ×10⁸ CFU/g. For the same compound, the Activity (Yersinia pestis [10]) was 1 ×10⁹ CFU/g, the Activity (Yersinia pestis [11]) was 1 ×10⁶ CFU/g and the Activity (Yersinia pestis [12]) was 39 CFU/g. The Activity (Yersinia pestis [13]) was 33 CFU/g, the Activity (Yersinia pestis [14]) was 80 CFU/g and the Activity (Yersinia pestis [15]) was 11 CFU/g. For the same compound, the Activity (Yersinia pestis [16]) was 60 CFU/g, the Activity (Yersinia pestis [17]) was “Below limit of detection” and the Activity (African green monkey [18]) was “Toxic”. The Activity (African green monkey [19]) was 0.4 mg/dL, the Activity (African green monkey [20]) was 0.5 mg/dL and the Activity (African green monkey [21]) was 102 IU/L. It also gave an Activity (African green monkey [22]) of 38 IU/L, an Activity (African green monkey [23]) of 379 IU/L and an Activity (African green monkey [24]) of 299 IU/L. For the same compound, the Activity [25] was 7.2 ×10³ /uL and the Activity [26] was 8.5 ×10³ /uL.
